The values below come from article PMC8747035, “Design, Synthesis, and Biological Evaluation of 5,6,7,8-Tetrahydrobenzo[4,5]thieno[2,3-d]pyrimidines as Microtubule Targeting Agents” (Molecules, 2022).

Like-named read-outs stand apart in the source and are kept apart here.

Data set [1] has as its system HeLa WTβIII cells. The note with it: read-out: IC50 ± SD in HeLa WTβ3; cited from earlier work.
The next data set has as its system Bovine brain tubulin. The note with it: read-out: Inhibition of Tubulin Assembly IC50 ± SD; cited from earlier work.
For a further data set, the system named is A-10 cells. The note with it: read-out: EC50 for Microtubule Depolymerization in A-10 Cells; cited from earlier work.
The test system of data set [2] is SK-OV-3 cells. The note with it: read-out: IC50 ± SD in SK-OV-3 Cells; cited from earlier work.
Another data set deals with MDA-MB-435 cells. The note with it: SRB assay, antiproliferative; read-out: IC50 ± SD in MDA-435 Cells; cited from earlier work. Background: Sulforhodamine B stains cellular protein and so reports cell mass.
The next data set concerns tubulin. The note with it: compound at 5 μM; cited from earlier work.
The test system of the next data set is SK-OV-3 MDR1-M6/6 cells. The note with it: read-out: IC50 ± SD in SK-OV-3 MDR1-M6/6 Cells; cited from earlier work.
In data set [3] the test system is HeLa cells. The note with it: read-out: IC50 ± SD in HeLa; cited from earlier work.
Data set [4] deals with HeLa WTβIII cells. The data set can be described thus: SRB assay in βIII-tubulin expressing HeLa WTβIII cells. The note with it: Homo sapiens, read-out: IC50 ± SD in HeLa WTβ3. Type of data set: cell-based. How it is done:
(§1) Compounds 4–8, 10, 12, and 13 were evaluated for their abilities to overcome βIII-tubulin mediated drug resistance using an isogenic HeLa cell line pair (Table 4). […] The Rr values (Table 4) were calculated by dividing the IC50 of the βIII-tubulin expressing line by the IC50 obtained in the parental HeLa cells.
(§2) The antiproliferative and cytotoxic effects of the compounds in cancer cells were evaluated using the SRB assay as previously described. MDA-MB-435 cells were obtained from the Lombardi Cancer Center of Georgetown University (Washington, DC, USA). SK-OV-3 and HeLa cells were purchased from ATCC. Details about the generation of the SK-OV-3 MDR1-M6/6 and HeLa WTβIII cells were described previously. The IC50 values represent an average of three independent experiments, each conducted using triplicate points.
(§3) HeLa, A-10, SK-OV-3, and SK-OV-3 MDR1-M6/6 cells were grown in Basal Medium Eagle (Sigma-Aldrich, St. Louis, MO, USA) supplemented with 10% FBS (Hyclone, GE Life Sciences, Logan, UT, USA) 1% GlutaMAX (Gibco, Life Technologies, Waltham, MA, USA) and 50 µg/mL gentamycin (Life Technologies, USA). HeLa WTβIII cells were grown in Dulbecco’s Modified Eagle Medium (Life Technologies) supplemented with 10% FBS and 50 µg/mL gentamycin. MDA-MB-435 cells were maintained in Improved Minimum Essential Medium (Life Technologies) supplemented with 10% FBS and 25 µg/mL gentamycin. All cells were grown at 37 °C in a humidified environment with 5% CO2.

Data set [5] has as its system SK-OV-3 cells. Nature of the data set: SRB assay in SK-OV-3 cells. Format: cell-based. The note with it: Homo sapiens, read-out: IC50 ± SD in SK-OV-3 Cells. Here is the method:
Comparison of the IC50 values in the parental SK-OV-3 and genetically manipulated SK-OV-3 MDR1-M6/6 cell line allows for the calculation of a relative resistance value, designated Rr. This value is calculated by dividing the IC50 value obtained in the Pgp-expressing SK-OV-3 MDR1-M6/6 cells by the IC50 obtained in the parental SK-OV-3 cells.
as §2, §3

The subject of the next data set is MDA-MB-435 tumors. Nature of the data set: MDA-MB-435 xenograft model. Format: in vivo, nude mice. The note with it: 15 mg/kg i.p. 3 times a week. Here is the method:
Compound 4 was selected for further evaluation in an in vivo xenograft mouse study in light of its nanomolar potency in vitro in the NCI-60 cancer cell line panel and its potent microtubule depolymerization activity. The in vivo effects of 4 were tested in the MDA-MB-435 xenograft model (Figure 5).
MDA-MB-435 tumor fragments were implanted s.c. into the flanks of female nude mice. […] Compound 4 was dissolved in a 50:50 Cremophor EL/DMSO mixture and further dissolved in PBS for a final concentration of 10:10:80 Cremophor EL:DMSO:PBS (v/v). […] Tumor volumes and mouse weights were measured 2–3 times a week. A two-way ANOVA with Dunnett’s post-hoc tests including all treatment groups in the trial was used to determine significant differences in tumor volumes between drug-treated and untreated control groups on each measurement day. These animal studies were performed at the University of Texas Health Science Center in San Antonio in compliance with an approved Institutional Animal Care and Use protocol.
MDA-MB-435 tumors were implanted into the flanks of nude mice and allowed to grow until they reached a volume of ~200 mm^3. […] Tumor volumes and mouse weights were measured 2–3 times a week. Statistical significance was evaluated by two-way ANOVA (time vs. drug) with Dunnett’s post-hoc tests. A statistically significant difference in tumor volume was detected on day 14 between mice treated with 4 (* p = 0.0384) and untreated control tumors.

Data set [6] deals with HeLa cells. Nature of the data set: SRB assay in HeLa cells. Format: cell-based. The note with it: Homo sapiens, read-out: IC50 ± SD in HeLa. How it is done: as §1, §2, §3

Regarding `CSc1ccc(N(C)c2nc(N)nc3[nH]c4ccccc4c23)cc1` [Compound 2], the IC50 with HeLa WTβIII cells [1] was 78.4 ± 4 nM; in the data set with Bovine brain tubulin it was 2300 ± 300 nM; with SK-OV-3 cells [2], 156 ± 16 nM; in the data set with MDA-MB-435 cells, 89.1 ± 10 nM; with SK-OV-3 MDR1-M6/6 cells, 160 ± 15 nM; with HeLa cells [3], 118 ± 13 nM. Besides, in the data set with A-10 cells, the EC50 (usually the concentration giving half of the maximal effect) was 1100 nM. Also, in the data set with tubulin, the “Inhibition of Colchicine Binding (% inhibition ± SD)” value (shortened to “Inhibition … (% inhibition ± SD)”) is on record as 67.0 ± 5.0%.

Consider `CC(=O)O[C@H]1C(=O)[C@@]2(C)[C@H]([C@H](OC(=O)c3ccccc3)[C@]3(O)C[C@H](OC(=O)[C@H](O)[C@@H](NC(=O)c4ccccc4)c4ccccc4)C(C)=C1C3(C)C)[C@]1(OC(C)=O)CO[C@@H]1C[C@@H]2O` [Paclitaxel, paclitaxel, reference compound], for which the IC50 in the data set on HeLa WTβIII cells [4] was found to be 24 ± 3 nM; in the data set with SK-OV-3 cells [5], 5 ± 0.6 nM; in the data set with HeLa cells [6], 2.8 ± 0.4 nM. Moreover, the “Antitumor effects on MDA-MB-435 tumor volume vs control” value in the data set with MDA-MB-435 tumors is recorded as “did not reach statistical significance”.

Regarding `COc1ccc(N(C)c2nc(N)nc3[nH]c4ccccc4c23)cc1` [Compound 1], the IC50 in the data set on HeLa WTβIII cells [1] is 21.4 ± 3.5 nM; with Bovine brain tubulin, 1400 ± 7 nM; in the data set on SK-OV-3 cells [2], 27.6 ± 1.8 nM; in the data set with MDA-MB-435 cells it was 14.7 ± 1.5 nM; in the data set on HeLa cells [3], 21.3 ± 2.2 nM. Moreover, the EC50 with A-10 cells is 130 nM. For the same compound, the “Inhibition … (% inhibition ± SD)” value in the data set with tubulin is on record as 84 ± 0.50%.

`COc1ccc(N(C)c2ncnc3[nH]c4ccccc4c23)cc1` [Compound 3]: the IC50 in the data set with HeLa WTβIII cells [1] was 99.5 ± 12 nM; with Bovine brain tubulin, 2300 ± 400 nM; with SK-OV-3 cells [2] it was 173 ± 8.6 nM; in the data set on MDA-MB-435 cells, 130 ± 7.8 nM; in the data set on SK-OV-3 MDR1-M6/6 cells, 224 ± 21 nM; with HeLa cells [3], 142 ± 8.1 nM. Also, the EC50 in the data set on A-10 cells is 1200 nM. In addition, the “Inhibition … (% inhibition ± SD)” value in the data set on tubulin is listed as 62.0 ± 4.0%.
